We go through 3 molecules from patent US8389523B2, “Substituted quinoxaline and an agrochemical composition thereof” (Kumiai Chemical Industry Co., Ltd., priority 2007, dated 2013).

Data set [1] deals with Echinochloa oryzicola Vasing. Kind of data set: Herbicidal effects in paddy field soil treatment (Test Example 1). Format: in vivo. Also on record: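 grade 0 to 5 of growth suppression where 5 is 90% or more and 0 below 10%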. The following applies: paddy field soil treatment; 1000 g of the active ingredient per hectare; wettable powder added dropwise on water surface; 21st day after treatment. Summed up:
(§1)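 Weed seeds were sown into puddled, leveled paddy soil in pots and flooded to 3 cm water depth. One day later the diluted wettable powder formulation was dropped onto the water surface at 1000 g active ingredient per hectare. Herbicidal effect was scored on day 21 after greenhouse growth.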

Data set [2] relates to Monochoria vaginalis (Burm. f.) Presl var. plantaginea (Roxb.) Solms-Laub. Described as above. Format: in vivo. The arrangement: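 grade 0 to 5 of growth suppression where 5 is 90% or more and 0 below 10%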. The following applies: paddy field soil treatment; 1000 g of the active ingredient per hectare; wettable powder added dropwise on water surface; 21st day after treatment. Summed up: as §1
In data set [3] the test system is Scirpus juncoides Roxb. var. ohwianus. T. Koyama. Described as above. Format: in vivo. The arrangement: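 grade 0 to 5 of growth suppression where 5 is 90% or more and 0 below 10%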. The settings on record: paddy field soil treatment; 1000 g of the active ingredient per hectare; wettable powder added dropwise on water surface; 21st day after treatment. In a few lines: as §1
In data set [4] the test system is Abutilon theophrasti medicus. Kind of data set: Herbicidal effects in upland field soil treatment (Test Example 2). Format: in vivo. The arrangement: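 grade 0 to 5 of growth suppression where 5 is 90% or more and 0 below 10%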. The following applies: 1000 g active ingredient per hectare, 21st day after treatment, criteria of Table 138. In a few lines: (§2)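 Pre-emergence soil application: seeds sown in upland field soil, covered, then wettable powder diluted in water sprayed on the soil surface at 1000 g active ingredient/ha in 1000 L/ha. Plants grown in greenhouse; herbicidal effect scored on a rating scale 21 days after treatment.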

Data set [5] relates to Amaranthus viridis L. The description is as above. Also on record: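 grade 0 to 5 of growth suppression where 5 is 90% or more and 0 below 10%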. Format: in vivo. The following applies: 1000 g active ingredient per hectare, 21st day after treatment, criteria of Table 138. Summed up: as §2
The subject of data set [6] is Abutilon theophrasti medicus. Kind of data set: Herbicidal effects in upland field foliar treatment (Test Example 3). Format: in vivo. The arrangement: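 grade 0 to 5 of growth suppression where 5 is 90% or more and 0 below 10%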. The settings on record: criteria of Table 138; for herbicidal effect (index) on Abutilon theophrasti medicus: 1000 g active ingredient per hectare, 14th day after treatment. In a few lines: (§3)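 Weeds were sown in upland field soil and grown two weeks in a greenhouse before a foliar spray over the whole plant. Wettable powder was diluted in water and applied at 1000 L/ha, delivering 1000 g active ingredient/ha. Herbicidal effect was scored against set rating criteria 14 days after treatment.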

For data set [7], the system named is Amaranthus viridis L. The description is as above. The settings on record: criteria of Table 138; for herbicidal effect (index) on Amaranthus viridis L.: 1000 g active ingredient per hectare, 14th day after treatment. Also on record: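 grade 0 to 5 of growth suppression where 5 is 90% or more and 0 below 10%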. Format: in vivo. In a few lines: as §3
The test system of data set [8] is Echinochloa crus-galli (L.) P. Beauv. var. crus-galli. Described as above. Format: in vivo. The arrangement: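 grade 0 to 5 of growth suppression where 5 is 90% or more and 0 below 10%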. The following applies: criteria of Table 138; for herbicidal effect (index) on Echinochloa crus-galli (L.) P. Beauv. var. crus-galli: 1000 g active ingredient per hectare, 14th day after treatment. In a few lines:
as §3

Setting [9] is: 1000 g of the active ingredient per hectare, 14th day after the treatment, wettable powder.

Regarding `Cn1c(=O)c(C(=O)C2=C(O)CCCC2=O)nc2ccccc21` [I-2, 3-(2-hydroxy-6-oxo-1-cyclohexenecarbonyl)-1-methylquinoxalin-2(1H)-one], the melting point lay within 191 to 192 °C. The “Herbicidal effects index, Echinochloa oryzicola Vasing” value in data set [1] came to 4. Besides, in [2], the “Herbicidal effects index, Monochoria vaginalis (Burm. f.) Presl var. plantaginea (Roxb.) Solms-Laub.” value (shortened to “Herbicidal effects index … (Roxb.) Solms-Laub.”) turned out to be 5. Also, in data set [3], the “Herbicidal effects index, Scirpus juncoides Roxb. var. ohwianus. T. Koyama” value worked out at 5. Besides, the “herbicidal effect (index) on Abutilon theophrasti medicus” value in data set [4] turned out to be 5. In the data set on Amaranthus viridis L. [5], the “herbicidal effect (index) on Amaranthus viridis L.” value is recorded as 5. The “herbicidal effect (index) on Abutilon theophrasti medicus” value in data set [6] turned out to be 5. Also, the “herbicidal effect (index) on Amaranthus viridis L.” value in the data set with Amaranthus viridis L. [7] was 5. The “herbicidal effect (index) on Echinochloa crus-galli (L.) P. Beauv. var. crus-galli” value in data set [8] amounted to 4.

On to `O=C1CCCC(O)=C1C(=O)c1nc2cccnc2n(Cc2ccccc2OC(F)F)c1=O` [III-234], for which, in data set [1], the “Herbicidal effects index, Echinochloa oryzicola Vasing” value was 5. Also, the “Herbicidal effects index … (Roxb.) Solms-Laub.” value in data set [2] worked out at 5. Also, in [3], the “Herbicidal effects index, Scirpus juncoides Roxb. var. ohwianus. T. Koyama” value came out at 5. Moreover, the “herbicidal effect (index) on Abutilon theophrasti medicus” value in data set [4] came out at 5. In addition, the “herbicidal effect (index) on Amaranthus viridis L.” value in the data set on Amaranthus viridis L. [5] is on record as 5. Moreover, the “herbicidal effects on Abutilon theophrasti medicus” value in data set [6] (setting [9]) turned out to be 5. Further, the “herbicidal effects on Amaranthus viridis L.” value in the data set on Amaranthus viridis L. [7] (setting [9]) is 5. Further, in [8] (setting [9]), the “herbicidal effects on Echinochloa crus-galli (L.) P. Beauv. var. crus-galli” value was 5.

In the case of `Cc1cc(-n2c(=O)c(C(=O)C3=C(O)CCCC3=O)nc3ccccc32)no1` [I-145], the “Herbicidal effects index, Echinochloa oryzicola Vasing” value in data set [1] is recorded as 5. Besides, the “Herbicidal effects index … (Roxb.) Solms-Laub.” value in data set [2] was 5. In addition, in [3], the “Herbicidal effects index, Scirpus juncoides Roxb. var. ohwianus. T. Koyama” value came out at 5. In addition, the “herbicidal effect (index) on Abutilon theophrasti medicus” value in data set [4] and in [6] was 5 each time. The “herbicidal effect (index) on Amaranthus viridis L.” value in the data set on Amaranthus viridis L. [5] and in the data set with Amaranthus viridis L. [7] was 5 in each case. Also, the “herbicidal effect (index) on Echinochloa crus-galli (L.) P. Beauv. var. crus-galli” value in data set [8] is listed as 5.
